The MIC is the smallest concentration in the dilution series that meets the test's criterion for growth inhibition.

≈ marks a conversion by molar mass, not a printed value. Bounds are passed on as bounds.

The first assay deals with E. coli BW25113. The assay can be described thus: MIC, 2-fold broth dilution, E. coli BW25113. It is filed as cell-based, Escherichia coli. The settings on record: E. coli BW25113; asterisk in column 1-10. A general note: Dilution methods test growth across graded concentrations, often in twofold steps.
Turning to “1,1′-((([1,1′-biphenyl]-4,4′-dicarbonyl)bis(azanediyl))bis(2-bromo-4,1-phenylene))bis(1-methylpiperidin-1-ium) [Example 88]”, the “MIC, μM 1-10” value is on record as “* (1-10)”.

The assay is the same for the next values; noted with them: E. coli BW25113; asterisk in column >50.
On to “4,4′-(([1,1′-biphenyl]-4,4′-dicarbonyl)bis(azanediyl))bis(1,2-dimethylpyridin-1-ium) [Example 34]”, for which the “MIC, μM >50” value is on record as “* (>50)”.

Staying with this assay, now noted: Escherichia coli; E. coli BW25113; asterisk in column 1-10; read-out: MIC, μM 1-10.
In the case of `CN(C)c1ccc(NC(=O)c2ccc(-c3ccc(C(=O)Nc4ccc(N5CCCCC5)cc4)cc3)cc2)cc1` [Example 127], the MIC fell in the range of 1 to 10 µM (≈ 0.519 to 5.19 µg/mL).

As to `C[n+]1ccc(-c2ccc(NC(=O)c3ccc(C(=O)Nc4ccc(-c5cc[n+](C)cc5)cc4)cc3)cc2)cc1` [Example 56], the MIC is 1 to 10 µM.

Regarding `C#CCCOc1cc(NC(=O)c2ccc(-c3ccc(C(=O)Nc4ccc([N+](C)(C)C)c(F)c4)cc3)cc2)ccc1[N+](C)(C)C` [Example 103, 2-(but-3-yn-1-yloxy)-4-(4′-((3-fluoro-4-(trimethylammonio)phenyl)carbamoyl)-[1,1′-biphenyl]-4-carboxamido)-N,N,N-trimethylbenzenaminium], the MIC is 1 to 10 µM.

On to `C[N+](C)(C)c1ccc(NC(=O)c2ccc(-c3ccc(C(=O)Nc4ccc([N+](C)(C)C)c(F)c4)cc3)cc2)cc1F` [Example 77, 2-fluoro-4-(4′-{[3-fluoro-4-(trimethylazaniumyl)phenyl]carbamoyl}-[1,1′-biphenyl]-4-amido)-N,N,N-trimethylanilinium], for which the MIC is 1 to 10 µM.

On to `CCCCCCCCc1cn(CCOCCOCCOCCNC(=O)CCCC[C@H]2SC[C@H]3NC(=O)N[C@H]32)nn1` [Example 142], for which the minimum inhibitory concentration (MIC) was in the range of 1 to 10 µM (≈ 0.583 to 5.83 µg/mL).

`C#CCCCCOc1cc(NC(=O)c2ccc(-c3ccc(C(=O)Nc4ccc([N+](C)(C)C)c(F)c4)cc3)cc2)ccc1[N+](C)(C)C` [Example 96, 2-fluoro-4-(4′-((3-(hex-5-yn-1-yloxy)-4-(trimethylammonio)phenyl)carbamoyl)-[1,1′-biphenyl]-4-carboxamido)-N,N,N-trimethylbenzenaminium]: the MIC lay in the range of 1 to 10 µM.

The same assay, now with this note: Escherichia coli; E. coli BW25113; asterisk in column 10-50; read-out: MIC, μM 10-50.
On to `C[n+]1ccc(NC(=O)c2ccc(C(=O)Nc3ccc(Nc4cc[n+](C)cc4)c(F)c3)cc2)cc1` [Example 66, 1-methyl-4-(4-((3-fluoro-4-((1-methylpyridin-1-ium-4-yl)amino)phenyl)carbamoyl)benzamido)pyridin-1-ium], for which the MIC is 10 to 50 µM.

As to `C[N+](C)(C)c1ccc(NC(=O)c2ccc(-c3ccc(C(=O)Nc4ccc([N+](C)(C)C)c(Br)c4)cc3)cc2)cc1Br` [Example 86, 4,4′-(([1,1′-biphenyl]-4,4′-dicarbonyl)bis(azanediyl))bis(2-bromo-N,N,N-trimethylbenzenaminium)], the MIC lay in the range of 10 to 50 µM.

As for `C[n+]1ccc(Oc2ccc(NC(=O)c3ccc(C(=O)Nc4ccc(Oc5cc[n+](C)cc5)cc4)c(N)c3)cc2)cc1` [Example 89, 4,4′-((((2-aminoterephthaloyl)bis(azanediyl))bis(4,1-phenylene))bis(oxy))bis(1-methylpyridin-1-ium)], the MIC is 10 to 50 µM.

As to `C[n+]1ccc(Oc2ccc(NC(=O)c3ccc(C(=O)Nc4ccc(Oc5cc[n+](C)cc5)cc4)c([N+](=O)[O-])c3)cc2)cc1` [Example 84, 4,4′-((((2-nitroterephthaloyl)bis(azanediyl))bis(4,1-phenylene))bis(oxy))bis(1-methylpyridin-1-ium)], the MIC is 10 to 50 µM.

Consider `C[n+]1ccc(NC(=O)c2ccc(C(=O)Nc3ccc(Nc4cc[n+](C)cc4)cc3)cc2)cc1` [Example 62, 1-methyl-4-(4-((4-((1-methylpyridin-1-ium-4-yl)amino)phenyl)carbamoyl)benzamido)pyridin-1-ium], for which the MIC was 10 to 50 µM.

Still in this assay, the particulars now being: Escherichia coli; E. coli BW25113; asterisk in column >50; read-out: MIC, μM >50.
For `CN(C)c1ccc(NC(=O)c2ccc(-c3ccc(C(=O)Nc4ccc(N(C)C)c(Br)c4)cc3)cc2)cc1Br` [Example 80, N^4,N^4′-bis(3-bromo-4-(dimethylamino)phenyl)-[1,1′-biphenyl]-4,4′-dicarboxamide], the MIC is > 50 µM.

With `C[N+](C)(C)c1ccc(NC(=O)c2ccc(-c3ccc(C(=O)Nc4ccc([N+](C)(C)C)c([N+](=O)[O-])c4)cc3C#N)cc2)cc1` [Example 154], the MIC was > 50 µM.

On to `C[N+](C)(C)c1ccc(NC(=O)c2ccc(-c3ccc(C(=O)Nc4ccc([N+](C)(C)Cc5cn(CCOCCOCCOCCNC(=O)CCCC[C@@H]6SC[C@@H]7NC(=O)N[C@@H]76)nn5)c(F)c4)cc3)cc2)cc1F` [Example 134], for which the MIC was > 50 µM.

Take `C[n+]1ccc(C(=O)Nc2ccc(-c3ccc(NC(=O)c4cc[n+](C)cc4)cc3)cc2)cc1` [Example 85, 4,4′-(([1,1′-biphenyl]-4,4′-diylbis(azanediyl))bis(carbonyl))bis(1-methylpyridin-1-ium)]: the minimal inhibitory concentration (MIC) is > 50 µM.

As for `CN(C)c1ccc(NC(=O)c2ccc(-c3ccc(C(=O)Nc4ccc(N(C)C)c([N+](=O)[O-])c4)cc3)c(S(C)(=O)=O)c2)cc1` [Example 140], the MIC was > 50 µM.

Regarding `C#CCN(C)c1ccc(NC(=O)c2ccc(-c3ccc(C(=O)Nc4ccc(N(C)C)c(F)c4)cc3)cc2)cc1F` [Example 93, N^4-(4-(dimethylamino)-3-fluorophenyl)-N^4′-(3-fluoro-4-(methyl(prop-2-yn-1-yl)amino)phenyl)-[1,1′-biphenyl]-4,4′-dicarboxamide], the minimal inhibitory concentration (MIC) is > 50 µM.

Consider `C#CCCOc1cc(NC(=O)c2ccc(-c3ccc(C(=O)Nc4ccc(N(C)C)c(F)c4)cc3)cc2)ccc1N(C)C` [Example 99, N^4-(3-(but-3-yn-1-yloxy)-4-(dimethylamino)phenyl)-N^4′-(4-(dimethylamino)-3-fluorophenyl)-[1,1′-biphenyl]-4,4′-dicarboxamide], for which the MIC was > 50 µM.

On to `O=C(Nc1ccc(Nc2ccncc2)cc1)c1ccc(C(=O)Nc2ccc(Nc3ccncc3)cc2)c(OC(F)(F)F)c1` [Example 43, N^1,N^4-bis(4-(pyridin-4-ylamino)phenyl)-2-(trifluoromethoxy)terephthalamide], for which the MIC was > 50 µM.

For the molecule `C[N+](C)(C)c1ccc(NC(=O)c2ccc(-c3ccc(C(=O)Nc4ccc([N+](C)(C)C)c(N)c4)cc3)c(S(C)(=O)=O)c2)cc1` [Example 147], the MIC is > 50 µM.

For the molecule `Cc1cc(C(=O)Nc2ccc(N(C)C)c(F)c2)ccc1-c1ccc(C(=O)Nc2ccc(N(C)C)c(F)c2)cc1` [Example 90, N^4,N^4′-bis(4-(dimethylamino)-3-fluorophenyl)-2-methyl-[1,1′-biphenyl]-4,4′-dicarboxamide], the MIC is > 50 µM.

On to `O=C(Nc1ccc(Cc2ccncc2)cc1)c1ccc(C(=O)Nc2ccc(Cc3ccncc3)cc2)cc1` [Example 12, N^1,N^4-bis(4-(pyridin-4-ylmethyl)phenyl)terephthalamide], for which the MIC is > 50 µM.

As to `O=C(Nc1ccncc1)c1ccc(C(=O)Nc2ccncc2)cc1` [Example 1, N^1,N^4-di(pyridin-4-yl)terephthalamide], the MIC is > 50 µM.

As for `Cc1cc(NC(=O)c2ccc(-c3ccc(C(=O)Nc4ccc(N(C)C)c(C)c4)cc3)cc2)ccc1N(C)C` [Example 36, N^4,N^4′-bis(4-(dimethylamino)-3-methylphenyl)-[1,1′-biphenyl]-4,4′-dicarboxamide], the MIC was > 50 µM.

For `COC(=O)Cn1cc(CCOc2cc(NC(=O)c3ccc(-c4ccc(C(=O)Nc5ccc([N+](C)(C)C)c(F)c5)cc4)cc3)ccc2[N+](C)(C)C)nn1` [Example 107], the MIC is > 50 µM.

For `CN(C)c1ccc(NC(=O)c2ccc(-c3ccc(C(=O)Nc4ccc([N+](C)(C)C)c(F)c4)cc3)cc2)cc1F` [Example 125], the MIC was > 50 µM.

For `COc1cc(N(C)C)ccc1NC(=O)c1ccc(-c2ccc(C(=O)Nc3ccc(N(C)C)cc3OC)cc2)cc1` [Example 31, N^4,N^4′-bis(4-(dimethylamino)-2-methoxyphenyl)-[1,1′-biphenyl]-4,4′-dicarboxamide], the MIC was > 50 µM.

Take `C[n+]1ccc(Nc2ccc(NC(=O)c3ccc(-c4ccccc4)cc3)cc2)cc1` [Example 18, 4-((4-([1,1′-biphenyl]-4-ylcarboxamido)phenyl)amino)-1-methylpyridin-1-ium]: the MIC is > 50 µM.

Consider `C[n+]1ccc(CNC(=O)c2ccc(-c3ccc(C(=O)NCc4cc[n+](C)cc4)cc3)cc2)cc1` [Example 100, 4,4′-((([1,1′-biphenyl]-4,4′-dicarbonyl)bis(azanediyl))bis(methylene))bis(1-methylpyridin-1-ium)], for which the MIC is > 50 µM.

As to `CN(C)C1CCC(NC(=O)c2ccc(-c3ccc(C(=O)NC4CCC(N(C)C)CC4)cc3)cc2)CC1` (centres unmarked) [Example 46, N^4,N^4′-bis(4-(dimethylamino)cyclohexyl)-[1,1′-biphenyl]-4,4′-dicarboxamide], the MIC was > 50 µM.

`O=C(Nc1ccc(Nc2ccncc2)cc1)c1ccc(C(=O)Nc2ccc(Nc3ccncc3)cc2)cc1` [Example 9, N^1,N^4-bis(4-(pyridin-4-ylamino)phenyl)terephthalamide]: the MIC was > 50 µM.

In the case of `CN(C)c1ccc(NC(=O)c2ccc(-c3ccc(C(=O)Nc4ccc(N(C)C)c(Cl)c4)cc3)cc2)cc1Cl` [Example 38, N^4,N^4′-bis(3-chloro-4-(dimethylamino)phenyl)-[1,1′-biphenyl]-4,4′-dicarboxamide], the MIC is > 50 µM.

Regarding `Cc1cc(Nc2cc[n+](C)cc2)ccc1NC(=O)c1ccc(C(=O)Nc2cc[n+](C)cc2)cc1` [Example 67, 1-methyl-4-(4-((2-methyl-4-((1-methylpyridin-1-ium-4-yl)amino)phenyl)carbamoyl)benzamido)pyridin-1-ium], the MIC was > 50 µM.

Regarding `O=C(Nc1ccc(Nc2ccncc2)cc1)c1ccc(C(=O)Nc2ccc(Nc3ccncc3)cc2)c(F)c1` [Example 51, 2-fluoro-N^1,N^4-bis(4-(pyridin-4-ylamino)phenyl)terephthalamide], the MIC is > 50 µM.

Take `O=C(Nc1ccc(Nc2ccccn2)cc1)c1ccc(C(=O)Nc2ccc(Nc3ccccn3)cc2)cc1` [Example 10, N^1,N^4-bis(4-(pyridin-2-ylamino)phenyl)terephthalamide]: the MIC is > 50 µM.

On to `C#CCCCCN(C)c1ccc(NC(=O)c2ccc(-c3ccc(C(=O)Nc4ccc(N(C)C)c(F)c4)cc3)cc2)cc1F` [Example 126], for which the MIC is > 50 µM.

The record behind these values is patent US20240116857A1 (St. Louis University, priority 2022, published 2024).
